Data set [1] can be described thus: Cytotoxicity test in HEp-2 cells (CCK8 cell viability). The conditions noted are these: human; HEp-2 cells, CCK8, 1 day; read-out: CC50. The class given is cell-based. In a few lines:
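Compound dilutions (final DMSO 0.5%) were applied for 1 day to HEp-2 cells plated at 30,000 per well the day before. CCK8 signal gave survival relative to cell and medium controls, and a four-parameter log(inhibitor)-response fit yielded CC50.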

For another data set, the system named is RSV A long virus strain. The class given is cell-based. The conditions noted are these: RSV A long virus strain, HEp-2 cells, plaque reduction, 1 day; read-out: IC50. In a few lines:
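Plaque reduction in HEp-2 cells: virus (100 PFU/well) and serially diluted compound (8 concentrations) mixed 1 h, adsorbed 2 h, then overlaid with 0.8% CMC medium plus compound for 1 day at 37 °C. Spots counted after anti-RSV immunostaining; IC50 from normalized inhibition, CC50 from viability data.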

Where a SMILES comes first, the peptide text is derived from it. The star is where a group is joined. Succinyl(4-O-cholesteryl) = CC(C)CCC[C@@H](C)[C@H]1CC[C@H]2[C@@H]3CC=C4C[C@@H](OC(=O)CCC(=O)*)CC[C@]4(C)[C@H]3CC[C@]12C

By CC50 is commonly meant the concentration giving 50% cytotoxicity. Usually IC50 stands for the concentration that gives 50% inhibition. For the compound `CC[C@H](C)[C@H](NC(=O)[C@H](CCCCN)NC(=O)[C@H](CCC(=O)O)NC(=O)[C@H](CC(C)C)NC(=O)[C@H](CO)NC(=O)[C@H](CCC(N)=O)NC(=O)[C@H](CC(N)=O)NC(=O)[C@@H](NC(=O)[C@H](CCCCN)NC(=O)[C@H](CCC(=O)O)NC(=O)[C@H](CC(N)=O)NC(=O)[C@@H](NC(=O)[C@H](CCC(N)=O)NC(=O)[C@H](CO)NC(=O)[C@H](C)NC(=O)[C@H](CC(=O)O)NC(=O)[C@H](Cc1ccccc1)NC(=O)[C@@H](NC(=O)[C@H](CC(C)C)NC(=O)[C@H](CCC(=O)O)NC(=O)[C@H](CC(=O)O)NC(=O)[C@H](Cc1ccc(O)cc1)NC(C)=O)C(C)C)C(C)C)[C@@H](C)CC)C(=O)N[C@@H](CCCNC(=N)N)C(=O)N[C@@H](CCCCN)C(=O)N[C@@H](CO)C(=O)N[C@@H](CC(=O)O)C(=O)N[C@@H](CCC(=O)O)C(=O)N[C@@H](CC(C)C)C(=O)N[C@@H](CC(C)C)C(=O)N[C@@H](Cc1c[nH]cn1)C(=O)N[C@@H](CC(N)=O)C(=O)N[C@H](C(=O)NCC(=O)N[C@@H](CO)C(=O)NCC(=O)N[C@@H](CO)C(=O)NCC(=O)N[C@@H](CCCCNC(=O)CCC(=O)O[C@H]1CC[C@@]2(C)C(=CC[C@H]3[C@@H]4CC[C@H]([C@H](C)CCCC(C)C)[C@@]4(C)CC[C@@H]32)C1)C(N)=O)C(C)C` [Compound 25] (Ac-YDELVFDASQVNEKINQSLEKIRKSDELLHNVGSGSGK(Succinyl(4-O-cholesteryl))-NH2), the CC50 at 1 day in data set [1] is 7500 nM. The half-inhibitory concentration (IC50) with RSV A long virus strain was 28.7 nM.
For the compound `CC[C@H](C)[C@H](NC(=O)[C@H](CO)NC(=O)[C@H](C)NC(=O)[C@H](CC(=O)O)NC(=O)[C@H](Cc1ccccc1)NC(=O)[C@H](CCC(=O)O)NC(=O)[C@H](CC(=O)O)NC(C)=O)C(=O)N[C@@H](CO)C(=O)N[C@@H](CCC(N)=O)C(=O)N[C@H](C(=O)N[C@@H](CC(N)=O)C(=O)N[C@@H](CCC(=O)O)C(=O)N[C@@H](CCCCN)C(=O)N[C@H](C(=O)N[C@@H](CC(N)=O)C(=O)N[C@@H](CCC(N)=O)C(=O)N[C@@H](CO)C(=O)N[C@@H](CC(C)C)C(=O)N[C@@H](CCC(=O)O)C(=O)N[C@@H](CCC(=O)O)C(=O)N[C@H](C(=O)N[C@@H](CCCNC(=N)N)C(=O)N[C@@H](CCCCN)C(=O)N[C@@H](CO)C(=O)N[C@@H](CC(=O)O)C(=O)N[C@@H](CCC(=O)O)C(=O)N[C@@H](CC(C)C)C(=O)N[C@@H](CC(C)C)C(=O)N[C@@H](Cc1c[nH]cn1)C(=O)N[C@@H](CC(N)=O)C(=O)N[C@@H](CCC(=O)O)C(=O)N[C@@H](C)C(=O)N[C@@H](C)C(=O)N[C@@H](C)C(=O)N[C@@H](CCCCN)C(=O)N[C@@H](CCCCNC(=O)CCC(=O)O[C@H]1CC[C@@]2(C)C(=CC[C@H]3[C@@H]4CC[C@H]([C@H](C)CCCC(C)C)[C@@]4(C)CC[C@@H]32)C1)C(N)=O)[C@@H](C)CC)[C@@H](C)CC)C(C)C` [Compound 28] (Ac-DEFDASISQVNEKINQSLEEIRKSDELLHNEAAAKK(Succinyl(4-O-cholesteryl))-NH2), the CC50 at 1 day in data set [1] turned out to be 8800 nM. In addition, in the data set with RSV A long virus strain, the IC50 amounted to 12.4 nM.
Regarding `CC[C@H](C)[C@H](NC(=O)[C@H](CCCCN)NC(=O)[C@H](CCC(=O)O)NC(=O)[C@H](CC(C)C)NC(=O)[C@H](CO)NC(=O)[C@H](CCC(N)=O)NC(=O)[C@H](CC(N)=O)NC(=O)[C@@H](NC(=O)[C@H](CCCCN)NC(=O)[C@H](CCC(=O)O)NC(=O)[C@H](CC(N)=O)NC(=O)[C@@H](NC(=O)[C@H](CCC(N)=O)NC(=O)[C@H](CO)NC(=O)[C@H](C)NC(=O)[C@H](CC(=O)O)NC(=O)[C@H](Cc1ccccc1)NC(=O)[C@@H](NC(=O)[C@H](CC(C)C)NC(=O)[C@H](CCC(=O)O)NC(=O)[C@H](CC(=O)O)NC(=O)[C@H](Cc1ccc(O)cc1)NC(C)=O)C(C)C)C(C)C)[C@@H](C)CC)C(=O)N[C@@H](CCCNC(=N)N)C(=O)N[C@@H](CCCCN)C(=O)N[C@@H](CO)C(=O)N[C@@H](CC(=O)O)C(=O)N[C@@H](CCC(=O)O)C(=O)N[C@@H](CC(C)C)C(=O)N[C@@H](CC(C)C)C(=O)N[C@@H](Cc1c[nH]cn1)C(=O)N[C@@H](CC(N)=O)C(=O)N[C@H](C(=O)N[C@@H](CCC(=O)O)C(=O)N[C@@H](C)C(=O)N[C@@H](C)C(=O)N[C@@H](C)C(=O)N[C@@H](CCCCN)C(=O)N[C@@H](CCCCNC(=O)CCC(=O)O[C@H]1CC[C@@]2(C)C(=CC[C@H]3[C@@H]4CC[C@H]([C@H](C)CCCC(C)C)[C@@]4(C)CC[C@@H]32)C1)C(N)=O)C(C)C` [Compound 30] (Ac-YDELVFDASQVNEKINQSLEKIRKSDELLHNVEAAAKK(Succinyl(4-O-cholesteryl))-NH2), in data set [1], the CC50 at 1 day was found to be 6200 nM. The IC50 in the data set on RSV A long virus strain stood at 14.9 nM.
With `CC[C@H](C)[C@H](NC(=O)[C@H](CCCCN)NC(=O)[C@H](CCCCN)NC(=O)[C@H](CC(C)C)NC(=O)[C@H](CO)NC(=O)[C@H](CCC(=O)O)NC(=O)[C@H](CCC(=O)O)NC(=O)[C@@H](NC(=O)[C@H](CCCCN)NC(=O)[C@H](CCCCN)NC(=O)[C@H](CC(N)=O)NC(=O)[C@@H](NC(=O)[C@H](CCC(=O)O)NC(=O)[C@H](CCC(=O)O)NC(=O)[C@@H](NC(=O)[C@H](CCCCN)NC(=O)[C@H](CCCCN)NC(=O)[C@H](CC(=O)O)NC(=O)[C@H](Cc1ccccc1)NC(=O)[C@H](CCC(=O)O)NC(=O)[C@H](CC(=O)O)NC(=O)[C@H](Cc1c[nH]c2ccccc12)NC(C)=O)[C@@H](C)CC)C(C)C)[C@@H](C)CC)C(=O)N[C@@H](CCC(=O)O)C(=O)N[C@@H](CCC(=O)O)C(=O)N[C@@H](CO)C(=O)N[C@@H](CC(=O)O)C(=O)N[C@@H](CCCCN)C(=O)N[C@@H](CCCCN)C(=O)N[C@@H](CC(C)C)C(=O)N[C@@H](CCC(=O)O)C(=O)N[C@@H](CCC(=O)O)C(=O)N[C@H](C(=O)N[C@@H](CC(N)=O)C(=O)N[C@@H](C)C(=O)N[C@@H](CCC(=O)O)C(=O)N[C@@H](C)C(=O)N[C@@H](C)C(=O)N[C@@H](C)C(=O)N[C@@H](CCCCN)C(=O)N[C@@H](CCCCNC(=O)CCC(=O)O[C@H]1CC[C@@]2(C)C(=CC[C@H]3[C@@H]4CC[C@H]([C@H](C)CCCC(C)C)[C@@]4(C)CC[C@@H]32)C1)C(N)=O)C(C)C` [Compound 40] (Ac-WDEFDKKIEEVNKKIEESLKKIEESDKKLEEVNAEAAAKK(Succinyl(4-O-cholesteryl))-NH2), in data set [1], the cytotoxic concentration (CC50) at 1 day worked out at 13000 nM. Moreover, the 50% inhibitory concentration (IC50) in the data set with RSV A long virus strain amounted to 11.7 nM.
The matching figures for `CC[C@H](C)[C@H](NC(=O)[C@H](CCCCN)NC(=O)[C@H](CCCCN)NC(=O)[C@H](CC(C)C)NC(=O)[C@H](CO)NC(=O)[C@H](CCC(=O)O)NC(=O)[C@H](CCC(=O)O)NC(=O)[C@@H](NC(=O)[C@H](CCCCN)NC(=O)[C@H](CCCCN)NC(=O)[C@H](CC(N)=O)NC(=O)[C@@H](NC(=O)[C@H](CCC(=O)O)NC(=O)[C@H](CCC(=O)O)NC(=O)[C@@H](NC(=O)[C@H](CCCCN)NC(=O)[C@H](CCCCN)NC(=O)[C@H](CC(=O)O)NC(=O)[C@H](Cc1ccccc1)NC(=O)[C@H](CCC(=O)O)NC(=O)[C@H](CC(=O)O)NC(=O)[C@H](Cc1c[nH]c2ccccc12)NC(C)=O)[C@@H](C)CC)C(C)C)[C@@H](C)CC)C(=O)N[C@@H](CCC(=O)O)C(=O)N[C@@H](CCC(=O)O)C(=O)N[C@@H](CO)C(=O)N[C@@H](CC(=O)O)C(=O)N[C@@H](CCCCN)C(=O)N[C@@H](CCCCN)C(=O)N[C@@H](CC(C)C)C(=O)N[C@@H](CCC(=O)O)C(=O)N[C@@H](CCC(=O)O)C(=O)N[C@H](C(=O)N[C@@H](CC(N)=O)C(=O)N[C@@H](CCC(=O)O)C(=O)N[C@@H](C)C(=O)N[C@@H](C)C(=O)N[C@@H](C)C(=O)N[C@@H](CCCCN)C(=O)N[C@@H](CCCCNC(=O)CCC(=O)O[C@H]1CC[C@@]2(C)C(=CC[C@H]3[C@@H]4CC[C@H]([C@H](C)CCCC(C)C)[C@@]4(C)CC[C@@H]32)C1)C(N)=O)C(C)C` [Compound 41] (Ac-WDEFDKKIEEVNKKIEESLKKIEESDKKLEEVNEAAAKK(Succinyl(4-O-cholesteryl))-NH2): 17000 nM and 14.8 nM.
With `CC[C@H](C)[C@H](NC(=O)[C@H](CO)NC(=O)[C@H](C)NC(=O)[C@H](CC(=O)O)NC(=O)[C@H](Cc1ccccc1)NC(C)=O)C(=O)N[C@@H](CCC(=O)O)C(=O)N[C@@H](CCC(=O)O)C(=O)N[C@H](C(=O)N[C@@H](CC(N)=O)C(=O)N[C@@H](CCCNC(=N)N)C(=O)N[C@@H](CCCNC(=N)N)C(=O)N[C@H](C(=O)N[C@@H](CCC(=O)O)C(=O)N[C@@H](CCC(=O)O)C(=O)N[C@@H](CO)C(=O)N[C@@H](CC(C)C)C(=O)N[C@@H](CCCNC(=N)N)C(=O)N[C@@H](CCCNC(=N)N)C(=O)N[C@H](C(=O)N[C@@H](CCC(=O)O)C(=O)N[C@@H](CCC(=O)O)C(=O)N[C@@H](CO)C(=O)N[C@@H](CC(=O)O)C(=O)N[C@@H](CCCNC(=N)N)C(=O)N[C@@H](CCCNC(=N)N)C(=O)N[C@@H](CC(C)C)C(=O)N[C@@H](CCC(=O)O)C(=O)N[C@@H](CCC(=O)O)C(=O)N[C@H](C(=O)N[C@@H](CC(N)=O)C(=O)N[C@@H](C)C(=O)N[C@@H](CCC(=O)O)C(=O)N[C@@H](C)C(=O)N[C@@H](C)C(=O)N[C@@H](C)C(=O)N[C@@H](CCCCN)C(=O)N[C@@H](CCCCNC(=O)CCC(=O)O[C@H]1CC[C@@]2(C)C(=CC[C@H]3[C@@H]4CC[C@H]([C@H](C)CCCC(C)C)[C@@]4(C)CC[C@@H]32)C1)C(N)=O)C(C)C)[C@@H](C)CC)[C@@H](C)CC)C(C)C` [Compound 42] (Ac-FDASIEEVNRRIEESLRRIEESDRRLEEVNAEAAAKK(Succinyl(4-O-cholesteryl))-NH2), the half-maximal cytotoxic concentration (CC50) at 1 day in data set [1] stood at 3710 nM. In addition, the concentration for half-maximal inhibition (IC50) in the data set with RSV A long virus strain amounted to 11.8 nM.
